Assay results as given in PMC6222558, “Synthesis and Evolution of Berberine Derivatives as a New Class of Antiviral Agents against Enterovirus 71 through the MEK/ERK Pathway and Autophagy” (Molecules : A Journal of Synthetic Chemistry and Natural …, 2018).
Where a name gives a salt, the structure may show the parent alone. Read-outs that look alike come from different tables or passages of the source.

Legend:
Vero cells = assay: Cytotoxicity assay (CCK) in Vero cells; format: cell-based, African green monkey; conditions: for TC50 (median toxic concentration): African green monkey, 48 h
Procedure: (§1) Vero cells were purchased from the American Type Culture Collection (ATCC, […], MD, USA), and were cultured in Minimum Essential Medium (MEM) supplemented with 10% fetal bovine serum (FBS) (GIBCO, Grand Island, NY, USA) and antibiotics (100 U/mL penicillin and […] streptomycin) at 37 °C in a 5% CO2 incubator. EV71 strain SHZH98 isolated from the throat swab sample of an HFMD case occurring in 1998 in China was kindly provided by Dr. Qi Jin (Institute of Pathogen Biology, Chinese Academy of Medical Science and Peking Union Medical School, Beijing, China), and JS-52 strain was a kind gift from Dr. Xiangzhong Ye (Beijing Wantai Biological Pharmacy Enterprise Co., Ltd., Beijing, China). The EV71 BrCr and H strains were purchased from the ATCC. All of EV71 strains were passaged in Vero cells.
Cytotoxicity of all target compounds in Vero cells was analyzed by CCK (TransGen Biotech, Beijing, China) assay. In brief, cells in exponential phase (3 × 10^4 cells/well) were seeded into 96-well culture plates and incubated overnight. Then, the medium was removed and different concentrations of all target compounds were applied in duple. After 48 h incubation, the cytotoxicity of all target compounds was determined by CCK assay. The signals were read at 450 nm on Enspire (Perkin Elmer, Waltham, MA, USA). The TC50 was defined as the concentration that inhibits 50% cellular growth in comparison with the controls. It is calculated by the Reed and Muench method.

[1] = tested on: EV71 H strain (VR-1432, genotype C2); assay: CPE inhibition assay for anti-EV71, H strain; format: cell-based, enterovirus 71 (EV71); conditions: for IC50: Enterovirus A, read-out: H Strain IC50; for anti-EV71 activity against H strain, in words: compared with BBR
Procedure: (§2) Thus, all newly synthesized BBR analogues were screened for their anti-EV71 potencies in African green monkey kidney (Vero) cells taking BBR as the positive control. EV71 strains used in the present study include different genotype strains, such as H strain (VR-1432, genotype C2), BrCr strain (VR-1775, genotype A), and JS-52 and SHZH98 (genotype C4). The potency against EV71 strains above mentioned of each tested compound was evaluated by the combination of its IC50 and selectivity index (SI) value as the important therapeutic indication.
as §1
(§3) The anti-EV71 activities of all tested compounds were detected by the virus-induced CPE assay. Briefly, cells (3 × 10^4 cells/well) were plated into 96-well culture plates and incubated for 16 h. Then, remove the medium and infected cells with EV71 of 100 × TCID50 (50% tissue culture infective doses) in serum-free medium for 1 h at 37 °C. After that, the unbound viruses were removed and various concentrations of tested compounds were supplemented for incubation of another 72 h. […] TC50 defined as the concentration that leads to the 50% of CPE which determined by the same method in 72 h. In addition, the cells were stained the cells were colored with 0.5% crystal violet in 20% ethanol for 15 min at room temperature and the cells were imaged after rinsed with PBS.

[2] = tested on: EV71 JS-52 strain (genotype C4); assay: CPE inhibition assay for anti-EV71, JS-52 strain; format: cell-based, enterovirus 71 (EV71); conditions: Enterovirus A, read-out: JS-52 Strain IC50
Procedure: as §2, §1, §3

[3] = tested on: EV71 SHZH98 strain (genotype C4); assay: CPE inhibition assay for anti-EV71, SHZH98 strain; format: cell-based, enterovirus 71 (EV71); conditions: Enterovirus A, read-out: SHZH98 Strain IC50
Procedure: as §2, §1, §3

[4] = tested on: EV71 BrCr strain (VR-1775, genotype A); assay: CPE inhibition assay for anti-EV71, BrCr strain; format: cell-based, enterovirus 71 (EV71); conditions: Enterovirus A, read-out: BrCr Strain IC50
Procedure: as §2, §1, §3

[5] = EV71, Vero cells, CPE, calculated on the organic part, n = 3

With `COc1ccc2cc3[n+](cc2c1OCC(=O)OCC(C)C)CCc1cc2c(cc1-3)OCO2` (as salt: chloride) [2b, 2,3-Methylenedioxy-9-isobutyloxyformylmethylenoxy-10-methoxy protoberberine chloride] the melting point was 232 to 234 °C.

`COc1ccc2cc3[n+](cc2c1OCC(=O)C(C)(C)C)CCc1cc2c(cc1-3)OCO2` (as salt: chloride) [2c, 2,3-Methylenedioxy-9-pivalylmethylenoxy-10-methoxy protoberberine chloride] gave a melting point of 242 to 244 °C.

`COc1ccc2cc3[n+](cc2c1OCC(=O)c1ccc(C)cc1)CCc1cc2c(cc1-3)OCO2` (as salt: chloride) [2e, 2,3-Methylenedioxy-9-p-tolylformylmethylenoxy-10-methoxy protoberberine chloride] showed a melting point of 219 to 221 °C.

Work on `COc1cccc(C(=O)COc2c(OC)ccc3cc4[n+](cc23)CCc2cc3c(cc2-4)OCO3)c1` (as salt: chloride) [2f, 2,3-Methylenedioxy-9-m-methoxyphenylformylmethylenoxy-10-methoxy protoberberine chloride] yielded a melting point of 214 to 216 °C.

With `COc1ccc2cc3[n+](cc2c1OCC(=O)c1ccc(C(F)(F)F)cc1)CCc1cc2c(cc1-3)OCO2` (as salt: chloride) [2g, 2,3-Methylenedioxy-9-p-trifloromethylphenylformylmethylenoxy-10-methoxy protoberberine chloride] the melting point was 238 to 240 °C.

`COc1ccc2cc3[n+](cc2c1OC(=O)OCc1ccccc1)CCc1cc2c(cc1-3)OCO2` (as salt: chloride) [2h, 2,3-Methylenedioxy-9-benzyloxyformyloxy-10-methoxy protoberberine chloride] gave a melting point of 195 to 197 °C.

In the case of `CCOC(=O)Oc1c(OC)ccc2cc3[n+](cc12)CCc1cc2c(cc1-3)OCO2` (as salt: chloride) [2i, 2,3-Methylenedioxy-9-ethyloxyformyloxy-10-methoxy protoberberine chloride], the melting point is reported as 218 to 220 °C.

`CCOC(=O)COc1c(OC)ccc2cc3[n+](cc12)CCc1cc(OC)c(OC)cc1-3` (as salt: chloride) [4a, 2,3,10-Trimethoxy-9-ethyloxyformylmethylenoxy protoberberine chloride] gave a melting point of 204 to 206 °C.

With `COc1cc2c(cc1OC)-c1cc3ccc(OC)c(OCC(=O)C(C)(C)C)c3c[n+]1CC2` (as salt: chloride) [4b, 2,3,10-Trimethoxy-9-pivalylmethylenoxy protoberberine chloride] the melting point was 227 to 229 °C.

In the case of `COc1cc2c(cc1OC)-c1cc3ccc(OC)c(OCC(=O)OCc4ccccc4)c3c[n+]1CC2` (as salt: chloride) [4c, 2,3,10-Trimethoxy-9-benzyloxyformylmethylenoxy protoberberine chloride], the melting point is reported as 196 to 198 °C.

`COc1cc2c(cc1OC)-c1cc3ccc(OC)c(OCC(=O)c4ccc(C)cc4)c3c[n+]1CC2` (as salt: chloride) [4d, 2,3,10-Trimethoxy-9-p-tolylformylmethylenoxy protoberberine chloride] showed a melting point of 228 to 230 °C.

In the case of `COc1cccc(C(=O)COc2c(OC)ccc3cc4[n+](cc23)CCc2cc(OC)c(OC)cc2-4)c1` (as salt: chloride) [4e, 2,3,10-Trimethoxy-9-m-methoxyphenylformylmethylenoxy protoberberine chloride], the melting point is reported as 200 to 202 °C.

With `COc1cc2c(cc1OC)-c1cc3ccc(OC)c(OCC(=O)c4ccc(C(F)(F)F)cc4)c3c[n+]1CC2` (as salt: chloride) [4f, 2,3,10-Trimethoxy-9-p-trifloromethylphenylformylmethylenoxy protoberberine chloride] the melting point was 240 to 242 °C.

`COc1cc2c(cc1OC)-c1cc3ccc(OC)c(OC(=O)OCc4ccccc4)c3c[n+]1CC2` (as salt: chloride) [4g, 2,3,10-Trimethoxy-9-benzyloxyformyloxy protoberberine chloride] showed a melting point of 98 to 100 °C.

`CCOC(=O)COc1cc2c(cc1OC)-c1cc3ccc(OC)c(OC)c3c[n+]1CC2` (as salt: chloride) [5a, 2,9,10-Trimethoxy-3-ethyloxyformylmethylenoxy protoberberine chloride] gave a melting point of 234 to 236 °C.

With `COc1cc2c(cc1OCC(=O)C(C)(C)C)CC[n+]1cc3c(OC)c(OC)ccc3cc1-2` (as salt: chloride) [5b, 2,9,10-Trimethoxy-3-pivalylmethylenoxy protoberberine chloride] the melting point was 223 to 225 °C.

For `COc1cc2c(cc1OCC(=O)OCc1ccccc1)CC[n+]1cc3c(OC)c(OC)ccc3cc1-2` (as salt: chloride) [5c, 2,9,10-Trimethoxy-3-benzyloxyformylmethylenoxy protoberberine chloride], the melting point was 217 to 219 °C.

In the case of `COc1cc2c(cc1OCC(=O)c1ccc(C)cc1)CC[n+]1cc3c(OC)c(OC)ccc3cc1-2` (as salt: chloride) [5d, 2,9,10-Trimethoxy-3-p-methylphenylformylmethylenoxy protoberberine chloride], the melting point is reported as 218 to 220 °C.

With `COc1cccc(C(=O)COc2cc3c(cc2OC)-c2cc4ccc(OC)c(OC)c4c[n+]2CC3)c1` [5e, 2,9,10-Trimethoxy-3-m-methoxyphenylformylmethylenoxy protoberberine chloride] the “cytotoxicity, in words” value (Vero cells) was “high cytotoxicity”, the “TC50 (median toxic concentration)” value (Vero cells) was 27.6 µM and the IC50 [1, 5] was 10.4 µM. The “anti-EV71 activity against H strain, in words” value (“anti-EV71 activity” below) ([1]; Vero cells) was “ideal activities compared with BBR”, the IC50 [2, 5] was 8.69 µM and the IC50 [3, 5] was 9.13 µM. It also gave an IC50 [4, 5] of 9.2 µM.

With `COc1cc2c(cc1OCC(=O)c1ccc(C(F)(F)F)cc1)CC[n+]1cc3c(OC)c(OC)ccc3cc1-2` [5f, 2,9,10-Trimethoxy-3-p-trifloromethylphenylformylmethylenoxy protober berine chloride] the “TC50 (median toxic concentration)” value (Vero cells) was 143 µM, the IC50 [1, 5] was 40.4 µM and the “anti-EV71 activity” value ([1]; Vero cells) was “partially or completely lost”. The IC50 [2, 5] was 27 µM, the IC50 [3, 5] was 68.4 µM and the IC50 [4, 5] was 25.4 µM.

With `COc1cc2c(cc1OC(=O)OCc1ccccc1)CC[n+]1cc3c(OC)c(OC)ccc3cc1-2` [5g, 2,9,10-Trimethoxy-3-benzyloxyformyloxy protoberberine chloride] the “TC50 (median toxic concentration)” value (Vero cells) was 265 µM, the IC50 [1, 5] was 143 µM and the “anti-EV71 activity” value ([1]; Vero cells) was “partially or completely lost”. For the same molecule, the IC50 [2, 5] was 51.3 µM, the IC50 [3, 5] was 86.7 µM and the IC50 [4, 5] was 82.8 µM.

In the case of `COc1cc2c(cc1O)CC[n+]1cc3c(OC)c(OC)ccc3cc1-2` [JTH, jatrorrhizine, reference compound], the “TC50 (median toxic concentration)” value (Vero cells) is reported as 255 µM, the IC50 ([1]; EV71, Vero) is reported as > 147 µM and the “anti-EV71 activity” value ([1]; Vero cells) is reported as “decreased activity”. The IC50 ([2]; EV71, Vero) was 147 µM, the IC50 ([3]; EV71, Vero) was 147 µM and the IC50 ([4]; EV71, Vero) was > 147 µM.

In the case of `COc1ccc2cc3[n+](cc2c1O)CCc1cc2c(cc1-3)OCO2` [compound 1], the “TC50 (median toxic concentration)” value (Vero cells) is reported as 85.5 µM, the IC50 [1, 5] is reported as 37 µM and the “anti-EV71 activity” value ([1]; Vero cells) is reported as “decreased activity”. It also gave an IC50 [2, 5] of 28.5 µM, an IC50 [3, 5] of 32.6 µM and an IC50 [4, 5] of 35.4 µM.

For `COc1cc2c(cc1OC)-c1cc3ccc(OC)c(O)c3c[n+]1CC2` [compound 3], the “TC50 (median toxic concentration)” value (Vero cells) was 254 µM, the IC50 [1, 5] was 121 µM and the “anti-EV71 activity” value ([1]; Vero cells) was “decreased activity”. The IC50 [2, 5] was 102 µM, the IC50 [3, 5] was 132 µM and the IC50 [4, 5] was 135 µM.
